Where two headings read alike, the source gives them in different places.
Legend:
[1] = system: Leishmania donovani axenic amastigote parasites; experiment: Leishmania donovani axenic amastigote proliferation assay (Cell TiterGlo luminescence, 2 day incubation); type: cell-based; conditions: Leishmania donovani, L. donovani axenic amastigotes; read-out: L. donovani amastigotes EC50
[2] = system: L. donovani HU3 strain in mouse peritoneal macrophages; experiment: Assay for proliferation of Leishmania parasites in infected mouse peritoneal macrophages (SybrGreen staining, high-content imaging, 5 days); type: cell-based, Leishmania donovani; conditions: Leishmania donovani, Peritoneal macrophage, L. donovani in mouse peritoneal macrophages; read-out: L. donovani Macrophage EC50
[3] = system: Trypanosoma brucei Lister 427 strain, bloodstream form; experiment: Assay for proliferation of kinetoplastid parasite Trypanosoma brucei (Cell Titer Glo, 48 hours); type: cell-based; conditions: Trypanosoma brucei
How it was run: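 Bloodstream-form T. brucei Lister 427 in HMI-9 medium was exposed to compound (DMSO vehicle) for 48 hours at 37° C, 5% CO2. Parasite growth was read as ATP by CellTiter-Glo luminescence, with EC50 calculated from percent inhibition.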

[4] = system: Trypanosoma cruzi amastigotes (Tulahuen strain expressing Lac-Z) cultured in 3T3 fibroblast cells; experiment: microbe, parasite or virus in culture; type: cell-based; conditions: Trypanosoma cruzi, TULAHUEN, Fibroblast, T. cruzi amastigotes in 3T3 fibroblast cells; read-out: T cruzi EC50
[5] = T. brucei Lister 427 bloodstream form, read-out: T. brucei EC50

SMILES | EC50 [1] [nM] | EC50 [2] [nM] | EC50 [3, 5] [µM] | EC50 [4] [nM] | EC50 ([3]; read-out: T. brucei EC50 (μM)) [µM]
Cc1nc(C)c(C(=O)Nc2ccc(F)c(-c3cn4cc(-c5cnc(C(C)C)cn5)cnc4n3)c2)o1 [Compound 446] | 33 | 146 | 0.161 | 122 | –
Cc1nc(C)c(C(=O)Nc2ccc(F)c(-c3cn4cc(-c5ncc(F)cc5F)cnc4n3)c2)o1 [Compound 447] | 36 | 1380 | 0.103 | 20 | –
Cc1ccc(-c2cnc3nc(-c4cc(NC(=O)c5oc(C)nc5C)ccc4F)cn3c2)nn1 [Compound 448] | 108 | 5150 | 0.157 | 798 | –
Cc1nc(C)c(C(=O)Nc2ccc(F)c(-c3cn4cc(-c5ncccc5F)cnc4n3)c2)o1 [Compound 449] | 28 | 54 | 0.056 | 22 | –
Cc1nc(C)c(C(=O)Nc2ccc(F)c(-c3cn4cc(-c5ccc(CCN(C)C)cc5)cnc4n3)c2)o1 [Compound 450] | 4620 | 2990 | 0.499 | 397 | –
CNCCc1ccc(-c2cnc3nc(-c4cc(NC(=O)c5oc(C)nc5C)ccc4F)cn3c2)cc1 [Compound 451] | 6470 | 1930 | 0.968 | 1950 | –
Cc1cnc(-c2cnc3nc(-c4cc(NC(=O)c5oc(C)nc5C)ccc4F)cn3c2)cn1 [Compound 452] | 19 | 61 | 0.097 | 45 | –
Cc1nc(C)c(C(=O)Nc2ccc(F)c(-c3cn4cc(-c5ncccc5C)cnc4n3)c2)o1 [Compound 453] | 17 | 23 | 0.021 | 15 | –
Cc1cccc(-c2cnc3nc(-c4cc(NC(=O)N5CCCC5)ccc4F)cn3c2)n1 [Compound 455, N-(4-fluoro-3-(6-(6-methylpyridin-2-yl)imidazo[1,2-a]pyrimidin-2-yl)phenyl)pyrrolidine-1-carboxamide] | 225 | 681 | 0.134 | 215 | –
O=C(Nc1ccc(Cl)c(-c2cn3cc(-c4ccccn4)cnc3n2)c1)N1CCCC1 [Compound 456, N-(4-chloro-3-(6-(pyridin-2-yl)imidazo[1,2-a]pyrimidin-2-yl)phenyl)pyrrolidine-1-carboxamide] | 42 | 218 | – | 40 | 0.054
COc1cccc(-c2cnc3nc(-c4cc(NC(=O)c5oc(C)nc5C)ccc4F)cn3c2)n1 [Compound 458] | 75 | 513 | 0.12 | 43 | –
CC(C)Nc1cnc2nc(-c3cc(NC(=O)N4CC(F)(F)C4)ccc3F)cn2c1 [Compound 460, 3,3-difluoro-N-(4-fluoro-3-(6-(isopropylamino)imidazo[1,2-a]pyrimidin-2-yl)phenyl)azetidine-1-carboxamide] | 241 | 208 | 0.164 | 182 | –
CC(C)Nc1cnc2nc(-c3cc(NC(=O)N4CC[C@@H](F)C4)ccc3F)cn2c1 [Compound 461] | 234 | 185 | 0.055 | 232 | –
Cc1ncc(C(=O)Nc2ccc(F)c(-c3cn4cc(NC(C)C)cnc4n3)c2)o1 [Compound 462] | 174 | 403 | 0.129 | 151 | –
Cc1nc(C)c(C(=O)Nc2ccc(F)c(-c3cn4cc(NCC(C)C)cnc4n3)c2)o1 [Compound 463] | 571 | 507 | 0.238 | 163 | –
CCC(C)Nc1cnc2nc(-c3cc(NC(=O)c4oc(C)nc4C)ccc3F)cn2c1 (stereo not drawn) [Compound 464] | 470 | 672 | 0.109 | 148 | –
Cc1nc(C)c(C(=O)Nc2ccc(F)c(-c3cn4cc(NCC(C)(C)C)cnc4n3)c2)o1 [Compound 465] | 329 | 289 | 0.153 | 146 | –

SMILES | EC50 [1] [nM] | EC50 [2] [nM] | EC50 [3, 5] [µM] | EC50 [4] [nM] | EC50 ([3]; read-out: T. brucei EC50 (μM)) [µM]
CN(C)c1cnc2nc(-c3cc(NC(=O)N4CC(F)(F)C4)ccc3F)cn2c1 [Compound 466] | 158 | 207 | 0.044 | 183 | –
Cc1ncc(C(=O)Nc2ccc(F)c(-c3cn4cc(N(C)C)cnc4n3)c2)o1 [Compound 467] | 147 | 266 | 0.166 | 129 | –
CN(C)c1cnc2nc(-c3cc(NC(=O)N4CC[C@@H](F)C4)ccc3F)cn2c1 [Compound 468] | 87 | 230 | 0.015 | 146 | –
CN(C)c1cnc2nc(-c3cc(NC(=O)N4CCC4)ccc3F)cn2c1 [Compound 469] | 143 | 230 | 0.055 | 146 | –
Cc1nc(C)c(C(=O)Nc2ccc(F)c(-c3cn4cc(N(C)C)cnc4n3)c2)o1 [Compound 470] | 252 | 689 | 0.159 | 148 | –
CCN(CC)c1cnc2nc(-c3cc(NC(=O)c4oc(C)nc4C)ccc3F)cn2c1 [Compound 471] | 601 | 637 | 0.159 | 147 | –
CC(C)CNc1cnc2nc(-c3cc(NC(=O)N4CCCC4)ccc3F)cn2c1 [Compound 472] | 210 | 737 | 0.058 | 297 | –
CCCNc1cnc2nc(-c3cc(NC(=O)N4CCCC4)ccc3F)cn2c1 [Compound 474] | 292 | 1110 | 0.203 | 478 | –
O=C(Nc1ccc(F)c(-c2cn3cc(NC4CCOCC4)cnc3n2)c1)N1CCCC1 [Compound 475] | 1310 | 5980 | 0.217 | 9160 | –
CC(C)Nc1cnc2nc(-c3cc(NC(=O)N4CCCC4)ccc3F)cn2c1 [Compound 476] | 153 | 358 | 0.042 | 152 | –
CC(C)(C)OC(=O)N[C@H]1CC[C@H](CNc2cnc3nc(-c4cc(NC(=O)N5CCCC5)ccc4F)cn3c2)CC1 [Compound 477] | 751 | 425 | 0.055 | 386 | –
O=C(Nc1ccc(F)c(-c2cn3cc(NCCC(F)(F)F)cnc3n2)c1)N1CCCC1 [Compound 478] | 4720 | > 16400 | 0.533 | 5520 | –
Cc1nc(C)c(C(=O)Nc2ccc(F)c(-c3cn4cc(NCc5ncc[nH]5)cnc4n3)c2)o1 [Compound 479] | > 22800 | > 50000 | 41.9 | > 20000 | –
Cc1nc(C)c(C(=O)Nc2ccc(F)c(-c3cn4cc(NCc5c[nH]cn5)cnc4n3)c2)o1 [Compound 480] | > 22300 | > 50000 | 8.42 | > 20000 | –
Cc1nc(C)c(C(=O)Nc2ccc(F)c(-c3cn4cc(NC5CCC5)cnc4n3)c2)o1 [Compound 482] | 569 | 1010 | 0.494 | 547 | –
Cc1nc(C)c(C(=O)Nc2ccc(F)c(-c3cn4cc(N(C)C(C)C)cnc4n3)c2)o1 [Compound 483] | 169 | 196 | 0.07 | 74 | –

From patent US20160045505A1, “COMPOUNDS AND COMPOSITIONS FOR THE TREATMENT OF PARASITIC DISEASES” (NOVARTIS AG, priority 2013, published 2016)
